Measured values taken from patent US12162861B2, “Dopamine D3 receptor selective antagonists/partial agonists; method of making; and use thereof” (THE UNITED STATES OF AMERICA, AS REPRESENTED BY THE …, priority 2016, dated 2024).

How the values were obtained:
[1] = system: Long-Evans rats; test: Oxycodone self-administration in rats; format: in vivo, rat; conditions: for oxycodone self-administration (oxycodone taking): FR1, 5-25 mg/kg i.p., FIG. 3A
Experimental: MATERIALS AND METHODS: Male Long-Evans rats (Charles-River, Raleigh, N.C.) were used. […] All the experimental procedures were consistent with the “Principles of Laboratory Animal Care” published by National Institutes of Health (NIH publication 86-23, 1996) and were approved by the NIDA Animal Care and Use Committee.
Surgery: Rats (300-350 g) used for oxycodone self-administration were first implanted with an intravenous catheter. They were anaesthetized with pentobarbital (30 mg/kg i.p.) supplemented with chloral hydrate (140 mg/kg, i.p.). A small incision was next made to the right of the midline of the neck and the external jugular vein was externalized and an i.v. catheter, made of microrenathane (Braintree Scientific Inc., Braintree, MA, USA) was inserted with its tip reaching right atrium. The catheter was secured to the vein with silk suture and the other end fed subcutaneously around the back of the neck to exit near the back of the skull. The end was slipped over a bent 24-gauge stainless steel cannula (Plastic One Inc., Roanoke, VA, USA) with a threaded head used to secure a dummy cannula and, during experimentation, an infusion line. The catheter and the guide cannula were then secured to the skull with four stainless steel screws threaded into the skull and dental cement and the wound was sutured.
After surgery, the catheters were flushed daily with a gentamicin-heparin-saline solution (30 IU/ml heparin; ICN Biochemicals, Cleveland, OH, USA) as precaution against catheter clogging and infection. The animals were allowed to recover for at least 5 days before the behavioral training started.
Self-administration apparatus and oxycodone self-administration training: Rats in 3 experimental tests were first trained to self-administer oxycodone. The self-administration apparatus and procedures have been described previously (Xi et al., 2004, 2005). […] This infusion time was also served as a timeout period during which the light-tone cue was kept activated and animal' responses on the active lever were recorded but had no scheduled consequence. […]

[2] = system: Long-Evans rats; test: Reinstatement of drug-seeking induced by oxycodone priming in rats; format: in vivo, rat; conditions: 5-15 mg/kg i.p., oxycodone priming 1 mg/kg i.p.
Experimental: Experiment 3. […] After completion of self-administration training, three additional groups of animals were exposed to the extinction conditions, in which cocaine was replaced by saline, and the cocaine-associated cue-light and tone were turned off. Active lever-pressing led only to saline infusion. Daily 3 hr extinction sessions for each rat continued until lever presses ≤10 times per 3 h session for at least 3 consecutive days. […] Fifteen min after injection, they were given a priming injection of oxycodone (1 mg/kg i.p.) and immediately put into the self-administration chambers. Animals were allowed to press levers for another extinction session and their responses on the levers were recorded.

[3] = target: opiate kappa receptor (Homo sapiens, UniProt P41145); test: Binding to opiate kappa receptor
[4] = target: T1, human D3R (Homo sapiens, UniProt P35462); test: Radioligand competition binding, [3H]N-methylspiperone, D3R; conditions: Table 1A; HEK 293 cells transfected with hD3R, [3H]N-methylspiperone; read-out: D3R K ± SEM
T1 construct: expressed in transfected cells; host or cells: HEK293
Experimental: Binding at dopamine D2-like receptors was determined using previously described methods. […] Upon reaching 80-90% confluence, cells were harvested using pre-mixed Earle's Balanced Salt Solution (EBSS) with 5 μM EDTA (Life Technologies) and centrifuged at 3000 rpm for 10 min at 21° C. The supernatant was removed and the pellet was resuspended in 10 mL hypotonic lysis buffer (5 mM MgCl2·6H2O, 5 mM Tris, pH 7.4 at 4° C.) and centrifuged at 20,000 rpm for 30 min at 4° C. The pellet was then resuspended in fresh EBSS buffer made from 8.7 g/L Earle's Balanced Salts without phenol red (US Biological, Salem, MA), 2.2 g/L sodium bicarbonate, pH to 7.4. A Bradford protein assay (Bio-Rad, Hercules, CA) was used to determine the protein concentration and membranes were diluted to 500 μg/mL and stored in a −80° C. freezer for later use.
Radioligand competition binding experiments were conducted using thawed membranes. Test compounds were freshly dissolved in 30% DMSO and 70% H2O to a stock concentration of 100 μM. To assist the solubilization of free-base compounds, 10 μl of glacial acetic acid was added along with the DMSO. Each test compound was then diluted into 13 half-log serial dilutions using 30% DMSO vehicle; final test concentrations ranged from 10 μM to 10 pM. Previously frozen membranes were diluted in fresh EBSS to a 100 μg/mL (for hD2R or hD3R) or 200 μg/mL (hD4R) stock for binding. Radioligand competition experiments were conducted in glass tubes containing 300 μl fresh EBSS buffer with 0.2 mM sodium metabisulfite, 50 μl of diluted test compound, 100 μl of membranes (10 μg total protein for hD2R or hD3R, 20 μg total protein for hD4R), and 50 μl of [^3H]N-methylspiperone (0.4 nM final concentration; Perkin Elmer). Nonspecific binding was determined using 10 μM butaclamol (Sigma-Aldrich, St. Louis, MO) and total binding was determined with 30% DMSO vehicle. All compound dilutions were tested in triplicate and the reaction incubated for one hour at room temperature. The reaction was terminated by filtration through Whatman GF/B filters, presoaked for one hour in 0.5% polyethylenimine, using a Brandel R48 filtering manifold (Brandel Instruments, Gaithersburg, MD). The filters were washed 3 times with 3 mL of ice cold EBSS buffer and transferred to scintillation vials. […] IC50 values for each compound were determined from dose-response curves and Ki values were calculated using the Cheng-Prusoff equation; these analyses were performed using GraphPad Prism version 5.00 for Windows (GraphPad Software, San Diego, CA). Reported Ki values were determined from least three independent experiments.

T1 sequence (P35462 whole entry): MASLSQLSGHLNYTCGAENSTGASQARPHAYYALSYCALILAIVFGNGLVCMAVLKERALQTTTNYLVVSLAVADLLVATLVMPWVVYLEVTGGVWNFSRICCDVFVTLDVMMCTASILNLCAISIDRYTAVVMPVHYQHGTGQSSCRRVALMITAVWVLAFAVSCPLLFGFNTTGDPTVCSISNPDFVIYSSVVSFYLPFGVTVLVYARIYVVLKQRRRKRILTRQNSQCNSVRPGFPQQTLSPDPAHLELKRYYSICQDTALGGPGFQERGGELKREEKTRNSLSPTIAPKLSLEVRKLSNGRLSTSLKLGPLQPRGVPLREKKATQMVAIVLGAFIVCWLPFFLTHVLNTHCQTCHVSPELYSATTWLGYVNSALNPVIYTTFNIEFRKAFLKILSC
Chain of opiate kappa receptor (P41145 whole entry): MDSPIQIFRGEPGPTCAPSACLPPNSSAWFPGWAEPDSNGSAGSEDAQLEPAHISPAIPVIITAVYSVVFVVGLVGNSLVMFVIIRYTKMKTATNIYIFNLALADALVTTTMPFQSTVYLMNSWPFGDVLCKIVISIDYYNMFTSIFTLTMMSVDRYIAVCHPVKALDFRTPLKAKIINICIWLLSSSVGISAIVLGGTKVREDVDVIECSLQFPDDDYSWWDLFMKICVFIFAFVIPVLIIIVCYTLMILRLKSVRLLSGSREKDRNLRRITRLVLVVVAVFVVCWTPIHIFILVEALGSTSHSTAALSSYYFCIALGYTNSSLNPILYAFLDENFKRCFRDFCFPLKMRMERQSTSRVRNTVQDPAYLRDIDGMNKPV

## CCc1cc(Cl)c(OC)c(N2CCN(CC(O)CCNC(=O)c3cc4ccccc4[nH]3)CC2)c1 (racemic) [Compound 29, N-(4-(4-(3-chloro-5-ethyl-2-methoxyphenyl)piperazin-1-yl)-3-hydroxybutyl)-1H-indole-2-carboxamide]
[1]
  oxycodone self-administration (oxycodone taking): attenuated self-administration at 15 and 25 mg/kg
[1]; listed as (±)-29
  oxycodone self-administration (oxycodone taking): attenuating effects
[1]; pretreatment 5-15 mg/kg i.p., oxycodone 0.05 mg/kg/infusion, effect at 15 mg/kg
  acquisition of oxycodone self-administration, number of infusions: significantly lower number of infusions of oxycodone
[2]; FIG. 4
  oxycodone-induced reinstatement to drug seeking: blocked oxycodone-induced reinstatement to drug seeking
[2]; FIG. 4, listed as (±)-29
  oxycodone-induced reinstatement to drug seeking: attenuating effects
[3]
  binding to opiate kappa receptor: does not bind
[4]
  Ki: 6.29 nM
